Source: patent publication US11026944B2, “Compositions and methods for treating insomnia” (Eisai R&D Management Co., Ltd., priority 2014, dated 2021)
Where two headings read alike, the source gives them in different places.

Assay: Single dose study (001 Study) Part A: plasma PK of compound A
Assay type: in vivo
Conditions: human, healthy subjects (Part A); for AUC from 0 to 24 h / AUC(0-inf) / AUC(0-t) / Cmax / half-life / Tmax: plasma, po; for AUC from 0 to 24 h: read-out: AUC(0-24) Mean(SD); for AUC(0-inf): read-out: AUC(0-inf) Mean(SD); for AUC(0-t): read-out: AUC(0-t) Mean(SD); for Cmax: read-out: Cmax Mean(SD); for half-life: read-out: t1/2 Median (converted); for Tmax: read-out: tmax Median; for concentration at 9 h: read-out: C9 Mean(SD)
Source text: This was a randomized, double-blind, placebo- and active-controlled, sequential, single-dose study. The study consisted of two parts, Part A (healthy subjects) and Part B (otherwise healthy subjects with primary insomnia).
For Part A, 64 healthy subjects were enrolled into cohorts sequentially in a gradual dose escalation manner, to receive either compound A or placebo, and stratified by gender. Each cohort comprised six compound A- and two placebo-treated subjects. All study drugs were administered as single doses using one or more compound A-capsules or compound A-matched placebo capsules due to the test dose. After screening, subjects underwent baseline procedures and randomization on Day-2. Subjects were dosed on Day 1 in the morning after an overnight fast, 1 hour after lights-on. PK blood samples were collected at prespecified timepoints, and PD assessments were performed. Subjects were administered assessments on Day 1 predose and every 2 hours from 2 to 12 hours postdose, and each morning on Days 2 to 6.
For subjects in Part A, Blood samples for determination of plasma concentrations of compound A were collected on Day 1 predose and at 0.25 (15 minutes), 0.5 (30 minutes), 1, 2, 3, 4, 5, 6, 9, 12, 24, 48, 72, 96, 120, 168, and 240 hours after oral administration of compound A, but collected up to 72 hours in the first three cohorts (1, 2.5 and 5 mg compound A groups). PK samples were collected preferentially via an indwelling venous catheter for the first 12 hours and by direct venipuncture thereafter.
Plasma concentrations of compound A were measured using a validated liquid chromatography-mass spectrometry/mass spectrometry (LC-MS/MS) assay.

**Q.** With Cc1ncc(OC[C@@]2(c3cccc(F)c3)C[C@H]2C(=O)Nc2ccc(F)cn2)c(C)n1 [Compound A, (1R,2 S)-2-(((2,4-dimethylpyrimidin-5-yl)oxy)methyl)-2-(3-fluorophenyl)-N-(5-fluoropyridin-2-yl) cyclopropanecarboxamide] as the molecule, how does the AUC from 0 to 24 h (1 mg, single oral 1 mg) read?
**A.** Its AUC from 0 to 24 h is ~17.2 ng·h/mL.

**Q.** What about the AUC(0-inf) (1 mg, single oral 1 mg) of the same molecule?
**A.** The AUC(0-inf) was ~19.8 ng·h/mL.

**Q.** And the AUC(0-t) (1 mg, single oral 1 mg)?
**A.** Its AUC(0-t) is ~19.1 ng·h/mL.

**Q.** And the Cmax (1 mg, single oral 1 mg)?
**A.** Its Cmax is ~5.3 ng/mL.

**Q.** What about the half-life (1 mg, single oral 1 mg) of the same molecule?
**A.** Its half-life is ~12.7 h.

**Q.** And the Tmax (1 mg, single oral 1 mg)?
**A.** Its Tmax is ~1 h.

**Q.** And the AUC from 0 to 24 h (2.5 mg, single oral 2.5 mg)?
**A.** Its AUC from 0 to 24 h is 56.8 ng·h/mL.

**Q.** And the AUC(0-inf) (2.5 mg, single oral 2.5 mg)?
**A.** The AUC(0-inf) was 79.7 ng·h/mL.

**Q.** And the AUC(0-t) (2.5 mg, single oral 2.5 mg)?
**A.** Its AUC(0-t) is 80.2 ng·h/mL.

**Q.** What about the Cmax (2.5 mg, single oral 2.5 mg) of the same molecule?
**A.** Its Cmax is 15.9 ng/mL.

**Q.** What about the half-life (2.5 mg, single oral 2.5 mg) of the same molecule?
**A.** Its half-life is 30.1 h.

**Q.** What about the Tmax (2.5 mg, single oral 2.5 mg) of the same molecule?
**A.** Its Tmax is 1.01 h.

**Q.** What about the AUC from 0 to 24 h (5 mg, single oral 5 mg) of the same molecule?
**A.** Its AUC from 0 to 24 h is 94.6 ng·h/mL.

**Q.** What about the AUC(0-inf) (5 mg, single oral 5 mg) of the same molecule?
**A.** Its AUC(0-inf) is 149 ng·h/mL.

**Q.** What about the AUC(0-t) (5 mg, single oral 5 mg) of the same molecule?
**A.** Its AUC(0-t) is 128 ng·h/mL.

**Q.** And the Cmax (5 mg, single oral 5 mg)?
**A.** Its Cmax is 22.7 ng/mL.

**Q.** And the half-life (5 mg, single oral 5 mg)?
**A.** The half-life was 31.3 h.

**Q.** What about the Tmax (5 mg, single oral 5 mg) of the same molecule?
**A.** Its Tmax is 1.55 h.

**Q.** And the AUC from 0 to 24 h (10 mg, single oral 10 mg)?
**A.** The AUC from 0 to 24 h was 159 ng·h/mL.

**Q.** And the AUC(0-inf) (10 mg, single oral 10 mg)?
**A.** The AUC(0-inf) was 311 ng·h/mL.

**Q.** And the AUC(0-t) (10 mg, single oral 10 mg)?
**A.** The AUC(0-t) was 284 ng·h/mL.

**Q.** And the Cmax (10 mg, single oral 10 mg)?
**A.** The Cmax was 36 ng/mL.

**Q.** And the half-life (10 mg, single oral 10 mg)?
**A.** Its half-life is 56.1 h.

**Q.** And the Tmax (10 mg, single oral 10 mg)?
**A.** Its Tmax is 1 h.

**Q.** And the AUC from 0 to 24 h (25 mg, single oral 25 mg)?
**A.** Its AUC from 0 to 24 h is 654 ng·h/mL.

**Q.** And the AUC(0-inf) (25 mg, single oral 25 mg)?
**A.** Its AUC(0-inf) is 1540 ng·h/mL.

**Q.** What about the AUC(0-t) (25 mg, single oral 25 mg) of the same molecule?
**A.** The AUC(0-t) was 1450 ng·h/mL.

**Q.** And the Cmax (25 mg, single oral 25 mg)?
**A.** Its Cmax is 108 ng/mL.

**Q.** And the half-life (25 mg, single oral 25 mg)?
**A.** The half-life was 65.5 h.

**Q.** What about the Tmax (25 mg, single oral 25 mg) of the same molecule?
**A.** The Tmax was 2.01 h.

**Q.** And the AUC from 0 to 24 h (50 mg, single oral 50 mg)?
**A.** Its AUC from 0 to 24 h is 1110 ng·h/mL.

**Q.** And the AUC(0-inf) (50 mg, single oral 50 mg)?
**A.** The AUC(0-inf) was 2150 ng·h/mL.

**Q.** And the AUC(0-t) (50 mg, single oral 50 mg)?
**A.** The AUC(0-t) was 2080 ng·h/mL.

**Q.** And the Cmax (50 mg, single oral 50 mg)?
**A.** The Cmax was 168 ng/mL.

**Q.** What about the half-life (50 mg, single oral 50 mg) of the same molecule?
**A.** The half-life was 51.9 h.

**Q.** And the Tmax (50 mg, single oral 50 mg)?
**A.** The Tmax was 2.53 h.

**Q.** What about the AUC from 0 to 24 h (100 mg, single oral 100 mg) of the same molecule?
**A.** Its AUC from 0 to 24 h is 1930 ng·h/mL.

**Q.** What about the AUC(0-inf) (100 mg, single oral 100 mg) of the same molecule?
**A.** Its AUC(0-inf) is 4740 ng·h/mL.

**Q.** And the AUC(0-t) (100 mg, single oral 100 mg)?
**A.** The AUC(0-t) was 4490 ng·h/mL.

**Q.** What about the Cmax (100 mg, single oral 100 mg) of the same molecule?
**A.** The Cmax was 264 ng/mL.

**Q.** And the half-life (100 mg, single oral 100 mg)?
**A.** Its half-life is 59.8 h.

**Q.** What about the Tmax (100 mg, single oral 100 mg) of the same molecule?
**A.** The Tmax was 3 h.

**Q.** What about the AUC from 0 to 24 h (200 mg, single oral 200 mg) of the same molecule?
**A.** The AUC from 0 to 24 h was 4080 ng·h/mL.

**Q.** What about the AUC(0-inf) (200 mg, single oral 200 mg) of the same molecule?
**A.** Its AUC(0-inf) is 10500 ng·h/mL.

**Q.** And the AUC(0-t) (200 mg, single oral 200 mg)?
**A.** The AUC(0-t) was 9840 ng·h/mL.

**Q.** What about the Cmax (200 mg, single oral 200 mg) of the same molecule?
**A.** Its Cmax is 431 ng/mL.

**Q.** And the half-life (200 mg, single oral 200 mg)?
**A.** The half-life was 65.2 h.

**Q.** What about the Tmax (200 mg, single oral 200 mg) of the same molecule?
**A.** Its Tmax is 3 h.

**Q.** And the concentration at 9 h (plasma at 9 h after single oral 1 mg)?
**A.** The concentration at 9 h was 0.384 ng/mL.

**Q.** And the concentration at 9 h (plasma at 9 h after single oral 2.5 mg)?
**A.** The concentration at 9 h was 1.54 ng/mL.

**Q.** And the concentration at 9 h (plasma at 9 h after single oral 5 mg)?
**A.** Its concentration at 9 h is 2.68 ng/mL.

**Q.** What about the concentration at 9 h (plasma at 9 h after single oral 10 mg) of the same molecule?
**A.** The concentration at 9 h was 4.6 ng/mL.

**Q.** What about the concentration at 9 h (plasma at 9 h after single oral 25 mg) of the same molecule?
**A.** Its concentration at 9 h is 21.9 ng/mL.

**Q.** And the concentration at 9 h (plasma at 9 h after single oral 50 mg)?
**A.** Its concentration at 9 h is 39.3 ng/mL.

**Q.** What about the concentration at 9 h (plasma at 9 h after single oral 100 mg) of the same molecule?
**A.** Its concentration at 9 h is 86 ng/mL.

**Q.** What about the concentration at 9 h (plasma at 9 h after single oral 200 mg) of the same molecule?
**A.** The concentration at 9 h was 199 ng/mL.
